According to paper PMC3785448, “Effect of Selectively Introducing Arginine and D-Amino Acids on the Antimicrobial Activity and Salt Sensitivity in Analogs of Human Beta-Defensins” (PLoS ONE, 2013):
Converted amounts (≈) assume the structure as drawn. Bridge positions count the residues as written; N and C are the ends. Square brackets hold non-standard residues; d marks the D form. Peptide text beside a SMILES is read from it.

Tests used:
C. albicans = assay: Candidacidal activity, minimum fungicidal concentration; format: cell-based; settings: minimum fungicidal concentration = no viable colonies; 10^6 cells/ml in 10 mM phosphate buffer pH 7.4, 2 h at 30°C, plated 24 h; average of three independent experiments in duplicate
Procedure: Minimum fungicidal concentrations (MFC) of the peptides were determined by growing C. albicans aerobically in yeast extract-peptone-dextrose (YEPD) medium at 30°C. After 20 h, 0.5 ml from this suspension was subcultured for 2 h in 20 ml of YEPD broth to obtain a mid-log-phase culture. Cells were harvested by centrifugation, washed with 10 mM phosphate buffer (PB), pH 7.4, and resuspended in the same buffer, and the concentration was adjusted to 10^6 cells/ml. Aliquots of diluted cells were incubated with peptides in 100 µl volume at 30°C for 2 h. Cell suspensions were diluted and spread on YEPD agar plates and the plates were incubated for 24 h at 30°C. Colonies were counted, and the concentrations of the peptides at which no viable colonies were formed were taken as the Minimum fungicidal concentration (MFC). Cell survival was expressed as a percentage of the control. Percentage killing was calculated as [(colonies from control cells- colonies from treated cells)/colonies from control cells x 100].
The average of results from three independent experiments done with duplicate samples was taken for the calculation of MFC. In control experiments, cells were incubated with only buffer.

P. aeruginosa = assay: Effect of divalent cations on antibacterial activity at LC; format: cell-based; settings: peptide at its LC; for Loss in activity at 5 mM Mg2+ against P. aeruginosa: 5 mM MgCl2, as compared to HC-1(R)
Procedure: (§1) To determine the effect of salt on antibacterial activity, different concentrations of NaCl was included in the incubation buffer at their LC. Different concentrations of divalent cations Ca^2+ and Mg^2+ (as their chloride salts), were included in the buffer to determine their effect on activity at lethal concentration (LC) of the peptides. In control experiments, cells were incubated with only buffer. Data are presented as mean ± standard deviation computed for three independent replicates.
(§2) Figure 2 Effect of divalent cations on antibacterial activity. Mid-log phase bacteria (10^6 CFU/mL) were incubated with peptides at their LC in the absence or presence of the indicated concentrations of CaCl2 and MgCl2. The data are mean values of three independent experiments and the error bars represent standard deviation of the measurements. Standard deviation values ranged between 0.2-2.7.

Gram-negative bacteria = assay: as above; format: cell-based; settings: peptide at its LC; for Antibacterial activity in the presence of 1 mM Ca2+, Gram-negative bacteria: 1 mM CaCl2 in buffer
Procedure: as §1, §2

S. aureus = assay: as above; format: cell-based; settings: peptide at its LC, 1 mM CaCl2
Procedure: as §1, §2

S. aureus (ATCC 8530) = assay: Antibacterial activity, lethal concentration (colony count); format: cell-based; settings: lethal concentration = no viable colonies; 10^6 cfu/ml in 10 mM sodium phosphate buffer pH 7.4, 2 h at 37°C, plated 18 h; average of three independent experiments in duplicate, variation <5%
Procedure: (§3) Bacterial strains used were E. coli (MG 1655), S. aureus (ATCC 8530), and P. aeruginosa (NCTC 6751). The antibacterial activity of the peptides was examined in sterile 96 well plates at a ﬁnal volume of 100 µl as follows: Bacteria were grown in nutrient broth (Bacto Difco nutrient broth) to mid-log phase and diluted to 10^6 colony forming units (cfu)/ml in 10 mM sodium phosphate buffer (pH 7.4). Bacteria were incubated with different concentration of peptides for 2 h at 37°C and suitably diluted aliquots were spread on nutrient agar plates. After the plates were incubated at 37°C for 18 h, colonies formed were counted. Lethal concentration (LC) is the concentration of the peptides at which no viable colonies were formed. Cell survival is expressed as a percentage of the control. Percentage killing was calculated as: [(colonies from control cells- colonies from treated cells)/colonies from control cells x 100]. The LC determined was average of three independent experiments done in duplicate. In control experiments, cells were incubated with only buffer.

[1] = system: P. aeruginosa (NCTC 6751); assay: as above; format: cell-based; settings: lethal concentration = no viable colonies; 10^6 cfu/ml in 10 mM sodium phosphate buffer pH 7.4, 2 h at 37°C, plated 18 h; average of three independent experiments in duplicate, variation <5%
Procedure: as §3

E. coli (MG 1655) = assay: as above; format: cell-based, Escherichia coli; settings: lethal concentration = no viable colonies; 10^6 cfu/ml in 10 mM sodium phosphate buffer pH 7.4, 2 h at 37°C, plated 18 h; average of three independent experiments in duplicate, variation <5%
Procedure: as §3

bacteria = assay: Antibacterial activity, comparison of peptides; format: cell-based; settings: from LC values
Procedure: as §3

Structure (SMILES)	MFC C. albicans (C. albicans) [µM]	Loss in activity at 5 mM Mg2+ against P. aeruginosa (P. aeruginosa)	Antibacterial activity in the presence of 1 mM Ca2+, Gram-negative bacteria (Gram-negative bacteria)	Loss in activity against S. aureus at 1 mM Ca2+ (S. aureus)	LC S. aureus (S. aureus (ATCC 8530)) [µM]	LC P. aeruginosa [1] [µM]	LC E. coli (E. coli (MG 1655)) [µM]	Loss in activity at 5 mM Ca2+ against P. aeruginosa (P. aeruginosa; 5 mM CaCl2, as compared to [D]HC-1(R))	Antibacterial activity in the presence of 5 mM Ca2+, Gram-negative bacteria (Gram-negative bacteria; 5 mM CaCl2 in buffer)	Fold more active against bacteria as compared to HC-1(R) and [D]HC-1(R) (bacteria) [fold]
CC[C@H](C)[C@@H]1NC(=O)[C@H](CCCCN)NC(=O)[C@H]([C@@H](C)O)NC(=O)[C@H](Cc2ccccc2)NC(=O)[C@H]([C@@H](C)CC)NC(=O)[C@@H]2CCCN2C(=O)[C@@H](NC(=O)[C@H](C)N)CSSC[C@@H](C(=O)N[C@@H](CCCNC(=N)N)C(=O)O)NC(=O)[C@H](CCCCN)NC(=O)[C@H](C)NC(=O)[C@H](CCCNC(=N)N)NC(=O)CNC(=O)[C@H](CCCNC(=N)N)NC(=O)[C@H](Cc2ccc(O)cc2)NC(=O)[C@H]([C@@H](C)O)NC(=O)CNC(=O)[C@H](CCC(N)=O)NC1=O [HC-1(R)] (H-ACPIFTKIQGTYRGRAKCR-OH; disulfide 2-18)	2.5 (≈ 5.42 µg/mL)									
CC[C@@H](C)[C@H]1NC(=O)[C@H](CCCCN)NC(=O)[C@H]([C@@H](C)O)NC(=O)[C@H](Cc2ccccc2)NC(=O)[C@@H]([C@H](C)CC)NC(=O)[C@@H]2CCCN2C(=O)[C@@H](NC(=O)[C@H](C)N)CSSC[C@@H](C(=O)N[C@@H](CCCNC(=N)N)C(=O)O)NC(=O)[C@H](CCCCN)NC(=O)[C@H](C)NC(=O)[C@@H](CCCNC(=N)N)NC(=O)CNC(=O)[C@@H](CCCNC(=N)N)NC(=O)[C@H](Cc2ccc(O)cc2)NC(=O)[C@H]([C@@H](C)O)NC(=O)CNC(=O)[C@H](CCC(N)=O)NC1=O [[D]HC-1(R)] (H-ACP[dI]FTK[dI]QGTY[dR]G[dR]AKCR-OH; disulfide 2-18; N-terminus assumed)	5 (≈ 10.8 µg/mL)	more	is not attenuated	not	5	5	5			
CC[C@@H](C)[C@H]1NC(=O)[C@H](CCC(N)=O)NC(=O)[C@H](CCC(=O)O)NC(=O)[C@H](CCC(=O)O)NC(=O)[C@H](CCCCN)NC(=O)[C@@H]2CCCN2C(=O)[C@H](CC(C)C)NC(=O)[C@@H](NC(=O)[C@@H](N)CO)CSSC[C@@H](C(=O)N[C@H](CCCNC(=N)N)C(=O)N[C@H](CCCNC(=N)N)C(=O)N[C@@H](CCCCN)C(=O)N[C@@H](CCCNC(=N)N)C(=O)O)NC(=O)[C@H](CCCCN)NC(=O)[C@@H](CCCNC(=N)N)NC(=O)CNC(=O)[C@@H](CCCNC(=N)N)NC(=O)[C@H]([C@@H](C)O)NC(=O)[C@H](CO)NC(=O)[C@H](CCCCN)NC(=O)CNC1=O [[D]HC-3(R)] (H-SCLPKEEQ[dI]GKST[dR]G[dR]KC[dR][dR]KR-OH; disulfide 2-18; N-terminus assumed)	2.5 (≈ 6.54 µg/mL)	more	loss in activity is observed		2.5	2.5	2.5	more pronounced	further attenuated	2
